Experiment: Stability study for amorphous trisodium sacubitril valsartan complex (HPLC purity and PXRD on storage)
Assay type: physicochemical
Description: In another embodiment, the present invention provides a method of packing amorphous form of sacubitril valsartan trisodium complex, comprising: placing amorphous form of sacubitril valsartan trisodium complex in LDPE bag under nitrogen atmosphere; placing the product containing Low-density polyethylene (LDPE) bag in a second LDPE bag under nitrogen atmosphere; keeping the silica gel packet between two LDPE bags and sealing; placing the second sealed bag in a triple laminated bag and sealing.
The X-Ray powder diffraction can be measured using PANalytical X'per^3pro X-ray powder Diffractometer equipped with a Cu-anode ([λ]=1.54 Angstrom), X-ray source operated at 45 kV, 40 mA. Two-theta calibration is performed using an NIST SRM 640c Si standard. The sample was analyzed using the following instrument parameters: measuring range=3-45° 20; step size=0.01°; and Time per step=23 sec.
In another embodiment, the present invention provides Sacubitril sodium and amorphous form of sacubitril-valsartan trisodium complex obtained by the above process, as analyzed using high performance liquid chromatography (“HPLC”) with the conditions are tabulated below:
The amorphous form of trisodium sacubitril valsartan complex is packed in LDPE bag under nitrogen atmosphere and placed in another LDPE bag, filled with nitrogen and kept silica gel packet between the bags, tied with strip seal. Kept the bag in triple laminated sunlight barrier bag and sealed with heat sealer. The stability of the samples was tested at 25±2° C./60±5% RH and 40±2° C./75±5% RH respectively.

[1] = 25 ± 2° C./60 ± 5% RH, 1st month
[2] = 25 ± 2° C./60 ± 5% RH, 3rd month
[3] = 25 ± 2° C./60 ± 5% RH, 6th month
[4] = 40 ± 2° C./75 ± 5% RH, 1st month
[5] = 40 ± 2° C./75 ± 5% RH, 3rd month
[6] = 40 ± 2° C./75 ± 5% RH, 6th month

**Q.** What does the source list for sacubitril valsartan trisodium complex?
**A.** HPLC purity (%) [1]: 99.95%; PXRD [1]: Amorphous; HPLC purity (%) [2]: 99.94%; PXRD [2]: Amorphous; HPLC purity (%) [3]: 99.93%; PXRD [3]: Amorphous; HPLC purity (%) (25 ± 2° C./60 ± 5% RH, Initial): 99.94%; PXRD (25 ± 2° C./60 ± 5% RH, Initial): Amorphous; HPLC purity (%) [4]: 99.95%; PXRD [4]: Amorphous; HPLC purity (%) [5]: 99.93%; PXRD [5]: Amorphous; HPLC purity (%) [6]: 99.90%; PXRD [6]: Amorphous; HPLC purity (%) (40 ± 2° C./75 ± 5% RH, Initial): 99.94%; PXRD (40 ± 2° C./75 ± 5% RH, Initial): Amorphous; solid form on storage (packed in LDPE/triple laminated bags, up to 6 months at real and accelerated conditions, up to about 40° C., about 25% to about 75% RH): the amorphous character was retained; stability at real time and accelerated conditions (stored at 25±2° C./60±5% RH for 6 months and at 40±2° C./75±5% RH for 6 months): stable
